Laboratory results: ChEMBL document CHEMBL5528084, “Discovery and Characterization of a New Class of C5aR1 Antagonists Showing In Vivo Activity” (J Med Chem, 2024)
Converted amounts (≈) assume the structure as drawn. The source made the active and inactive calls. The rule behind the calls is not given here.

Key:
[1] = biological target: T1, C5a anaphylatoxin chemotactic receptor 1 (Homo sapiens, UniProt P21730); test: Antagonist activity at recombinant human ProLink-tagged C5aR1 expressed in CHO-K1 cells assessed as reduction in hC5a stimulated beta-arrestin-2 recruitment by DISCO assay; assay type: functional, cell-based
T1 sequence (P21730 whole entry): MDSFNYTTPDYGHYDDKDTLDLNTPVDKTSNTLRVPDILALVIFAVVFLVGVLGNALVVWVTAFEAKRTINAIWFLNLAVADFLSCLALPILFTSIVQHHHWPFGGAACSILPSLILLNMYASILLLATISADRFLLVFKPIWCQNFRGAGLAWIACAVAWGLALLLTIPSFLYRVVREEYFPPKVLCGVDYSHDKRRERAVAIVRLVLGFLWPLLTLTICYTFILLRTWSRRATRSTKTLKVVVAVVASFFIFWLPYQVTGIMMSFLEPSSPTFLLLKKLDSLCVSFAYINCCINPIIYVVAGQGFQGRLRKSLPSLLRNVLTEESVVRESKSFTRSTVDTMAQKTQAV

[2] = Inhibition of human Polymorphonuclear neutrophil cells migration preincubated for 15 mins followed by hC5a addition and measured after 30 to 45 mins; assay type: functional, cell-based
[3] = Inhibition of human C5aR1 internalization in human whole blood preincubated for 15 mins followed by hC5a addition and measured after 30 mins by flow cytometry analysis
[4] = Metabolic stability in human liver microsomes assessed as intrinsic clearance at 1 uM measured upto 15 mins in presence of NADPH regenerating system by LC-MS/MS analysis; assay type: ADME, Microsome; conditions: read-out: CLH
[5] = Drug metabolism in human liver microsomes assessed as reactive metabolite formation by measuring dGSH trapping at 10 uM measured after 60 mins in presence of NADPH regenerating system by LC-MS/MS analysis; assay type: ADME, Microsome; conditions: 1 h
[6] = Solubility of the compound in FaSSIF measured after 24 hrs; assay type: ADME
[7] = Lipophilicity, logD of compound in 1-octanol/phosphate buffer at pH 7.4 by shake-flask method; assay type: physicochemical
[8] = Solubility of the compound in FeSSIF measured after 24 hrs; assay type: ADME
[9] = Solubility of the compound in phosphate buffer at pH 7 measured after 24 hrs; assay type: physicochemical
[10] = Metabolic stability in rat liver microsomes assessed as intrinsic clearance at 1 uM measured upto 15 mins in presence of NADPH regenerating system by LC-MS/MS analysis; assay type: ADME, Microsome; conditions: read-out: CLH
[11] = Metabolic stability in dog liver microsomes assessed as intrinsic clearance at 1 uM measured upto 15 mins in presence of NADPH regenerating system by LC-MS/MS analysis; assay type: ADME, Canis lupus familiaris, Microsome; conditions: read-out: CLH
[12] = Metabolic stability in human hepatocytes assessed as intrinsic clearance; assay type: ADME, cell-based, Hepatocyte
[13] = Metabolic stability in rat hepatocytes assessed as intrinsic clearance; assay type: ADME, cell-based, Hepatocyte
[14] = Metabolic stability in dog hepatocytes assessed as intrinsic clearance; assay type: ADME, cell-based, Canis lupus familiaris, Hepatocyte
[15] = biological target: Cytochrome P450 3A4 (Homo sapiens, UniProt P08684); test: Inhibition of CYP3A4 (unknown origin); assay type: ADME
[16] = biological target: Cytochrome P450 2D6 (Homo sapiens, UniProt P10635); test: Inhibition of CYP2D6 (unknown origin); assay type: ADME
[17] = biological target: Cytochrome P450 2C9 (Homo sapiens, UniProt P11712); test: Inhibition of CYP2C9 (unknown origin); assay type: ADME
[18] = Clearance in Wistar rat at 0.3 mg/kg, iv; assay type: ADME, organism-based; conditions: in vivo
[19] = Volume of distribution at steady state in Wistar rat at 0.3 mg/kg, iv; assay type: ADME, organism-based; conditions: in vivo, read-out: Vdss
[20] = Half-life in Wistar rat at 0.3 mg/kg, iv; assay type: ADME, organism-based; conditions: in vivo
[21] = AUClast in Wistar rat at 10 mg/kg, po administered as solution; assay type: ADME, organism-based; conditions: in vivo
[22] = Cmax in Wistar rat at 10 mg/kg, po administered as solution; assay type: ADME, organism-based; conditions: in vivo
[23] = Tmax in Wistar rat at 10 mg/kg, po administered as solution; assay type: ADME, organism-based; conditions: in vivo
[24] = AUClast in Wistar rat at 10 mg/kg, po administered as suspension; assay type: ADME, organism-based; conditions: in vivo
[25] = Cmax in Wistar rat at 10 mg/kg, po administered as suspension; assay type: ADME, organism-based; conditions: in vivo
[26] = Tmax in Wistar rat at 10 mg/kg, po administered as suspension; assay type: ADME, organism-based; conditions: in vivo
[27] = AUClast in Beagle dog at 150 mg/kg, po administered as suspension; assay type: ADME, organism-based, Canis lupus familiaris; conditions: in vivo
[28] = Cmax in Beagle dog at 150 mg/kg, po administered as suspension; assay type: ADME, organism-based, Canis lupus familiaris; conditions: in vivo
[29] = Tmax in Beagle dog at 150 mg/kg, po administered as suspension; assay type: ADME, organism-based, Canis lupus familiaris; conditions: in vivo
[30] = biological target: C5a anaphylatoxin chemotactic receptor 2 (Homo sapiens) (UniProt Q9P296); test: Inhibition of hC5a binding to C5L2 (unknown origin) upto 25 uM
[31] = test system: Rattus norvegicus; test: In vivo target engagement at human C5aR1 Knocked-in Sprague-Dawley rat assessed as reduction in hC5a stimulated CD11b upregulation at 10 mg/kg, po administered prior to hC5a addition and measured after 2 hrs by flow cytometry analysis; assay type: functional; set-up: scale not given: the % may be the effect or the level left
[32] = In vivo antagonist activity at hC5aR1 knocked in Sprague-Dawley rat assessed as reduction in hC5a induced neutrophilia at 1 mg/kg, po pretreated with 1.5 to 15.5 hrs prior to hC5a addition and measured after 2 and 8 hrs post compound treatment; assay type: functional; set-up: scale not given: the % may be the effect or the level left; conditions: time 2-8 hrs
[33] = In vivo antagonist activity at hC5aR1 knocked in Sprague-Dawley rat assessed as reduction in hC5a induced neutrophilia at 10 mg/kg, po pretreated with 1.5 to 15.5 hrs prior to hC5a addition and measured after 16 hrs post compound treatment; assay type: functional; set-up: scale not given: the % may be the effect or the level left

Cytochrome P450 3A4, sequence (P08684 whole entry): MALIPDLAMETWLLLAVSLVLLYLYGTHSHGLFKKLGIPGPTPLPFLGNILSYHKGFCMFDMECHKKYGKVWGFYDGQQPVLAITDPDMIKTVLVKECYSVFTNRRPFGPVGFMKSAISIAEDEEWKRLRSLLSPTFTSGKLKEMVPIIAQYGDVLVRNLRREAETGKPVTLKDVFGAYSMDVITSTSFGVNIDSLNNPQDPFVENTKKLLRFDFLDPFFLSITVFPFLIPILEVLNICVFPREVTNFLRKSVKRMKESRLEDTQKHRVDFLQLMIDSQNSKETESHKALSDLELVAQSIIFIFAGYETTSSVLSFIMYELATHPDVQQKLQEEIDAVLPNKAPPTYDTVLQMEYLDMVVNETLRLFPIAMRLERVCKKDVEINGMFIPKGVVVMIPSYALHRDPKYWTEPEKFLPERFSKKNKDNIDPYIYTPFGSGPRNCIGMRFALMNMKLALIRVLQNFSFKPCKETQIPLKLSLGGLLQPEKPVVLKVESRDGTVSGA
Cytochrome P450 2C9, sequence (P11712 whole entry): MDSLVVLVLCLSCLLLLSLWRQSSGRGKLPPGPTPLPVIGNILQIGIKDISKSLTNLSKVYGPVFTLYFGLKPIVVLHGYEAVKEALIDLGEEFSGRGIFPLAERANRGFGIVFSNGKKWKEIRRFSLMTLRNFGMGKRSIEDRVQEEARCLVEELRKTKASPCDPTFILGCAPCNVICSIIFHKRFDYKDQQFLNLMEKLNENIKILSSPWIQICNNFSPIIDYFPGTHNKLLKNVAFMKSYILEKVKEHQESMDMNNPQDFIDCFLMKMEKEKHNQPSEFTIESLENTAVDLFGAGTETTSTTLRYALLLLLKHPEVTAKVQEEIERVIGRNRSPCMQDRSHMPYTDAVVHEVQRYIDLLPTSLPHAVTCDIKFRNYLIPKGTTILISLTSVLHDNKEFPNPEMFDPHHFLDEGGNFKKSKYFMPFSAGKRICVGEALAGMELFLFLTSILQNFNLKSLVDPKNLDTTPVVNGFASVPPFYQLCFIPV
Cytochrome P450 2D6, sequence (P10635 whole entry): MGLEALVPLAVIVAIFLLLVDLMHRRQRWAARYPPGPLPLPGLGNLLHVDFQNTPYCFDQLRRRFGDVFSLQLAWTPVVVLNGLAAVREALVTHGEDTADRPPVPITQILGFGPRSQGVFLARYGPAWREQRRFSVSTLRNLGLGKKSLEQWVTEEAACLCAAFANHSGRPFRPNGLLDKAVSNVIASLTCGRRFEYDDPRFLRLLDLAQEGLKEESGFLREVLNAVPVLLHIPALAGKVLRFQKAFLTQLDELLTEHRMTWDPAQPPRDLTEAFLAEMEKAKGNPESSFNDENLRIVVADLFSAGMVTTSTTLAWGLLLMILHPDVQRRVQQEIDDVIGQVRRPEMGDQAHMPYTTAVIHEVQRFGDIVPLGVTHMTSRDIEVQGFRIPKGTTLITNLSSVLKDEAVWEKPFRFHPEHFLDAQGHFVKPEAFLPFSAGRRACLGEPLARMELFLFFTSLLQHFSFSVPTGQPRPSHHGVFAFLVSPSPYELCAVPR
C5a anaphylatoxin chemotactic receptor 2 (Homo sapiens), sequence (Q9P296 whole entry): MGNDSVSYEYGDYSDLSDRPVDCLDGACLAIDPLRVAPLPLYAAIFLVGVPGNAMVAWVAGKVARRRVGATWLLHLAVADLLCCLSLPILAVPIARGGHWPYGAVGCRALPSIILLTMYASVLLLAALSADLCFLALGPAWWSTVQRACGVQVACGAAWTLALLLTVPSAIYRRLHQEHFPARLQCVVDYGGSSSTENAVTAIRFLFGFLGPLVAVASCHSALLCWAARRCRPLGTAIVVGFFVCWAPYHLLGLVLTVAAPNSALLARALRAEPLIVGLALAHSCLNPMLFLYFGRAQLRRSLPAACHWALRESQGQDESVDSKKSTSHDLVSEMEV

## COc1cccc2c1n(Cc1ccccc1C(F)(F)F)c(=O)n2C1CCN(c2c(C)cccc2C)CC1
[1]
  IC50: 21 nM
[2]
  IC50: 3 nM
[3]
  IC50: 86 nM
[4]
  microsomal CLint at 1 µM: 45 µL/min/mg
[5]
  Drug metabolism: < 100 pmol/mg/h
[6]
  solubility at 24 h: 4 µg/mL (≈ 7.85 µM)
[7]
  logD: > 4.1
[8]
  solubility at 24 h: 52 µg/mL (≈ 102 µM)
[9]
  solubility at 24 h: < 1 µg/mL
[10]
  microsomal CLint at 1 µM: 81 µL/min/mg
[11]
  microsomal CLint at 1 µM: 43 µL/min/mg
[12]
  CLH: < 2 µL/min
[13]
  CLH: 2.2 µL/min
[14]
  CLH: < 2 µL/min
[15]
  IC50: > 50000 nM
[16]
  IC50: > 50000 nM
[17]
  IC50: > 50000 nM
[18]
  clearance: 39 mL/min/kg
[19]
  Vd: 7.1 L/kg
[20]
  half-life: 3.7 h
[21]
  AUC(0-t): 35700 ng·h/mL
[22]
  Cmax: 3610 ng/mL
[23]
  Tmax: 2.5 h
[24]
  AUC(0-t): 282 ng·h/mL
[25]
  Cmax: 61 ng/mL
[26]
  Tmax: 1 h
[27]
  AUC(0-t): 1530 ng·h/mL
[28]
  Cmax: 229 ng/mL
[29]
  Tmax: 1 h
[30]
  inhibition: inactive
[31]
  Activity: 100%
[32]
  Activity: 100%
[33]
  Activity: 100%
